The nature of data set [1]: Cytotoxicity in LS-180 cells using MTT assay. Conditions: human. In general terms: Tetrazolium assays rely on reduction of a dye to a coloured formazan, in cell work by metabolically active cells.
Protocol: (§1) Compounds proposed in present invention were evaluated for their cytotoxic effect in LS-180 cells using MTT assay. In each well of a 96-well plate, 3×10^3 cells were grown in 100 μL of medium. After 24 h, each test molecules were added to achieve a final concentration of 10 to 0.01 μmol/L, respectively. After 48 h of treatment, 20 μL of 2.5 mg/mL MTT solution in phosphate buffer saline was added to each well. After 48 h, supernatant was removed and formazan crystals were dissolved in 200 μL of DMSO. Absorbance was then measured at 570 nm using an absorbance plate reader. Data are expressed as the percentage of viable cells in treated relative to non-treated conditions.
In data set [2] the test system is P-glycoprotein (Pgp). Nature of the data set: Pgp-induction assay, rhodamine123 (Rh123) cell exclusion method in LS180 cells. The class given is cell-based. As to conditions: for EC50: 48 h treatment, Rh123 fluorescence; for Pgp induction activity compared to parent natural product: 1b, 1g versus garcinol (1a), 2b versus isogarcinol (2a). On the procedure: All synthesized compounds were screened for their ability to induce Pgp by using rhodamine123 (Rh123) cell exclusion method. In this method, the Pgp function was evaluated in terms of rhodamine 123 (Rh123) accumulations and efflux. Briefly, the protocol used is as follows: Colorectal LS180 cells Colorectal LS-180 cells [obtained from ECACC (European Collection of Cell Cultures) catalogue number: 87021202; passage number 52] were seeded at a density of 2×10^4 per well of 96 well plate and were allowed to grow for next 24 h. Cells were further incubated with the test compounds, and were diluted to a final concentration of 100 nM and rifampicin (standard) to a final concentration of 10 μM in complete media for 48 h. The final concentration of DMSO was kept at 0.1%. Drugs were removed and cells were incubated with HANKS buffer for 40 minutes before further incubation with HANKS buffer (containing 10 μM of Rh123 as a Pgp substrate) for 90 minutes. At the end of Rh123 treatment cells were washed four times with cold PBS followed by cell lysis for 1 h by using 200 μl of lysis buffer (0.1% Triton X-100 and 0.2 N NaOH). A total of 100 μl of lysate was used for reading fluorescence of Rh123 at 485 nm/529 nm. Samples were normalized by dividing fluorescence of each sample with total protein present in the lysate. […] For EC50 determination, different concentrations of compound were used to treat LS180 cells for 48 h. EC50 was determined by plotting fluorescence of Rh123 against concentration of compound.

The nature of data set [3]: in vitro. Conditions: human.
Protocol: as §1
Where [4] appears, read: LS-180 cells, read-out: Pgp induction EC50.
The mark [5] stands for this setting: LS180 cells, values in text, read-out: EC50 for p-glycoprotein induction activity.

Molecules are shown by their SMILES. Read-outs that look alike come from different tables or passages of the source.

The IC50 is the concentration at which inhibition is half-maximal. One may read the EC50 as the concentration at which the effect is half-maximal. Turning to `CC(C)=CC[C@H]1C[C@@]23C[C@@H](CC=C(C)C)C(C)(C)[C@@](CC=C(C)C)(C(=O)C(C(=O)c4ccc(O)c(O)c4)=C2OC1(C)C)C3=O` [Compound 2a, Isogarcinol, reference compound], the 50% inhibitory concentration (IC50) at 48 h in data set [1] is 11000 nM. The EC50 in data set [2] (setting [4]) is 7 nM.
For `C=C(C)[C@@H](CC=C(C)C)C[C@@]12C[C@@H](CC=C(C)C)C(C)(C)[C@@](CC=C(C)C)(C(=O)C(C(=O)c3ccc(O)c(O)c3)=C1O)C2=O` [Compound 1a, Garcinol, reference compound], inhibition in data set [3] was half-maximal at 20000 nM (IC50 at 48 h). In addition, the EC50 in data set [2] (setting [4]) came out at 12 nM.
Molecule `C=C(C)C(CC=C(C)C)CC12CC(CC=C(C)C)C(C)(C)C(CC=C(C)C)(C(=O)C(C(=O)c3ccc(OCc4ccccc4[N+](=O)[O-])c(OCc4ccccc4[N+](=O)[O-])c3)=C1O)C2=O` (centres unmarked) [Compound 1g, 3′,4′-di-[O-(2″-nitro-benzyl)]-garcinol] showed an IC50 at 48 h in data set [1] of more than 100000 nM. For the same molecule, the EC50 in data set [2] (setting [5]) was found to be 6.8 nM.
For `C=C(C)C(CC=C(C)C)CC12CC(CC=C(C)C)C(C)(C)C(CC=C(C)C)(C(=O)C(C(=O)c3ccc(OC(=O)CCC)c(OC(=O)CCC)c3)=C1O)C2=O` (centres unmarked) [Compound 1b, 3′,4′-Di-(O-Butanoyl)-Garcinol], the EC50 in data set [2] (setting [5]) was 8.9 nM. Further, the “Pgp induction activity compared to parent natural product” value in data set [2] (LS180 cells) is given as “better”.
With `CC(C)=CCOc1ccc(C(=O)C2=C3OC(C)(C)C(CC=C(C)C)CC34CC(CC=C(C)C)C(C)(C)C(CC=C(C)C)(C2=O)C4=O)cc1OCC=C(C)C` (centres unmarked) [Compound 2b, 3′,4′-di-(O-prenyl)-isogarcinol], in data set [1], it took 40000 nM to reach half-maximal inhibition (IC50 at 48 h). The EC50 in data set [2] (setting [5]) worked out at 2.9 nM. The “Pgp induction activity compared to parent natural product” value in data set [2] (LS180 cells) was “better”.

Source of the values: patent US10202326B2, “Polyprenylated phloroglucinol compounds as potent P-glycoprotein inducers” (COUNCIL OF SCIENTIFIC & INDUSTRIAL RESEARCH, priority 2014, dated 2019).
